# Starred links: 1 amine or outer side, 2 acyl side, 3 side chain; linkers in the order of their positions; H or OH if unused. Positions of bridges follow the written chain, without caps; N, C: chain ends. Residues, ends and D or L forms follow the SMILES beside them. *: point of attachment. C20 diacid = O=C(O)CCCCCCCCCCCCCCCCCCC(=O)*; C18 diacid = O=C(O)CCCCCCCCCCCCCCCCC(=O)*; γGlu = O=C(O)[C@H](CCC(=O)[*:2])N[*:1]; AEEA = NCCOCCOCC(=O)O
# How the values were obtained:
# [1] = PK of CNP compounds after i.v. and s.c. administration to rats; conditions: male, Sprague Dawley, in vivo, iv, rat, i.v., about 100 nmol/kg
# Procedure: In order to assess the i.v. and s.c. PK/PD profile of CNP compounds of the present invention, formulations of CNP compounds were administered to rats, blood samples taken and exposure and cGMP response measured.
# Quantitative plasma analysis of CNP-compounds: Plasma concentrations of CNP compounds were assayed by plasma protein precipitation and analysed by turboflow liquid chromatography mass spectrometry (TF-LC-MS). Calibrators were prepared by spiking either blank rat or minipig plasma with the relevant CNP compound in the range from 0.5 to 2000 nM. Calibrators, plasma blanks or study samples were prepared for TF-LC-MS by protein precipitation by adding three or four volumes of either ethanol or methanol containing 20 nM of internal standard to one volume of sample. For some compounds, formic acid was added to the precipitation reagent (the final concentration was 1% v/v). After the addition of the precipitation reagent, the mixture was centrifuged at 6200 rpm at 4° C. for 30 minutes. After centrifugation, one volume of supernatant was mixed with two volumes of water (with 1% v/v formic acid). The mixture was analysed by TF-LC-MS using a Cyclone turboflow column (0.5×50 mm, ThermoFisher Scientific) and either a XBridge Protein BEH C4 3.5 μm 300 Åor a XBridge Protein BEH C18 3.5 μm 130 Åanalytical column (both were 50×2.1 mm and obtained from Waters). […] The mass spectrometer was operated in positive ionisation mode. A TSQ Altis mass spectrometer (ThermoFisher Scientific) was used as detector in selected reaction monitoring mode (specific transition were optimised for each CNP compound). Linear calibration curves (weighed 1/×2) were used for calculating the concentration in the plasma samples. Quality control samples were included. The deviation between nominal and calculated concentration in the calibrators and quality control samples were below 15%.
# Animals and dosing: Groups of 4-6 rats (male, Sprague Dawley, 350 g at arrival, Janvier, France) per compound and route of administration were dosed with a CNP compound formulated either in A) 8 mM sodium phosphate, 250 mM glycerol, 0.007% polysorbate 20, pH 7.4 or B) 5 mM sodium acetate, 250 mM glycerol, 0.007% polysorbate 20, pH 4.0 depending on the respective compound. S.c. dose was 300 nmol/kg, at a concentration of […] resulting in a dosing volume of 0.3 mL/kg, whereas i.v. dose was 100 nmol/kg, at a concentration of […] resulting in a dosing volume of 1 mL/kg.
# Sampling: Sublingual blood samples of 250 uL were collected from unanaesthetised rats in EDTA-coated vials (Microvette 600K3E ref #15.1673.100 Sarstedt) at baseline (-1 h before dosing) as well as 5 min (only i.v. dosed groups), 2 h, 6 h, 24 h, 48 h and 72 h (only for exposure analysis) post-dosing. The blood samples were quickly stored on ice and centrifuged (4° C., 8000 RPM, 5 min) within 10 min of collection. Plasma samples of 50 μL were transferred to each micronic tube for either exposure or cGMP analysis, kept on dry ice and stored in a freezer (−20° C.). Rats had access to food (Altromin) and tap water ad libitum.
# Analysis: PK parameters were calculated by non-compartment analysis (NCA) using software Phoenix WinNonlin (ver. 8.1 or later, Certara) for each animal. Clearance (Cl) was calculated as: Dose/AUCinf (linear up, log down). […] Bioavailability was calculated as dose normalized AUC's: (AUC(sc)/Dose(sc))/(AUC(iv)/Dose(iv)). Values in the table are means from individual animals (n=4-6 individual animals). The subsequent plots for cGMP plasma concentration versus time are (Y-axis) mean cGMP concentration (n=4-6 individual animals) after IV dosing and (X-axis) nominal plasma sampling time.
# Plasma cGMP are reported as the mean.
# [2] = target: T1, human natriuretic peptide receptor 2 (hNPR2) (Homo sapiens, UniProt P20594); assay: In vitro hNPR2 activity assay (cGMP GloSensor reporter, HEK293); assay type: cell-based; conditions: potency relative to CNP22 (0065)
# T1 construct: expressed in transfected cells; host or cells: HEK293 (ATCC CRL-1573), clone 35, co-transfected with pGloSensor-42F
# T1 sequence (P20594 23-1047): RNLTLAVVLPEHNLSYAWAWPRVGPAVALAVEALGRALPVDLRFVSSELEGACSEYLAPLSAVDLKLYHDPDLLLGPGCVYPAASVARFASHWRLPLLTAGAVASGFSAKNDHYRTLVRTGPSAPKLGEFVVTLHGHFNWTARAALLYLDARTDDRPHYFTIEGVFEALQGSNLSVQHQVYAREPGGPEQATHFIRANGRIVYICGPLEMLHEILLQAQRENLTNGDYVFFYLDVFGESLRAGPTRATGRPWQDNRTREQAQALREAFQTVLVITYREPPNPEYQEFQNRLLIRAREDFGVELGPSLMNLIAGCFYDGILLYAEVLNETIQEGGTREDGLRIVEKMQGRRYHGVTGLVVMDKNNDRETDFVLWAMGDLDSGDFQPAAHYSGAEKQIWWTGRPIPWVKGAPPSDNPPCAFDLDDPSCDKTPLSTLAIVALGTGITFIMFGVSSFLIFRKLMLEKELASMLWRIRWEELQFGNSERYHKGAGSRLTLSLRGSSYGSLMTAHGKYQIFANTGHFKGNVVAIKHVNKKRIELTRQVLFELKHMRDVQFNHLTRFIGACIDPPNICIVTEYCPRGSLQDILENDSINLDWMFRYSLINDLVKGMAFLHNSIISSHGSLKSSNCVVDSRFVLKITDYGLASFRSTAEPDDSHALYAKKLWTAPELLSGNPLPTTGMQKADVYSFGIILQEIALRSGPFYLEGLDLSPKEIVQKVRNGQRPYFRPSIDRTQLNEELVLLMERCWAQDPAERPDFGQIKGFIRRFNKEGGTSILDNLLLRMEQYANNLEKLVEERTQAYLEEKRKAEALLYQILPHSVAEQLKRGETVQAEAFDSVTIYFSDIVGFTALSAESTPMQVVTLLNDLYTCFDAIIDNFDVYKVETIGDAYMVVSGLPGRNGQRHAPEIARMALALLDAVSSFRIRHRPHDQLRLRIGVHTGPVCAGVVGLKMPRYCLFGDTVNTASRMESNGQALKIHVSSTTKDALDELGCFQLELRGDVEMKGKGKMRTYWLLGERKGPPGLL
# How it was run: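 Potency is the EC50 from a four-parameter logistic fit, also expressed relative to the in-plate CNP22 control (×100), with at least two replicates. Compounds (ten concentrations, […], HSA-free diluent with 1% OVA, 0.01% Tween20) were incubated 30 min at 37 °C on HEK293 cells co-expressing hNPR2 and a GloSensor cGMP luciferase. Luminescence detected with Bright-Glo.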
# [3] = Solubility of CNP compounds at pH 4.0 and pH 6.5; assay type: physicochemical; conditions: 8 mM sodium phosphate, 23 mg/mL glycerol, pH 6.5, room temperature; read-out: Solubility at pH 6.5
# Procedure: In order to assess the suitability of CNP compounds for a soluble liquid formulation, the solubility of CNP compounds in pharmaceutically relevant buffers were measured. Solubility at two different pH-levels (pH 4.0 and pH 6.5) was examined as pH is expected to affect solubility.
# Preparation of pH 4.0 samples: The pH 4.0 samples of the CNP compounds were prepared by mixing freeze dried peptide with a pH 4.0 5 mM sodium acetate, 250 mM glycerol buffer at room temperature to a nominal concentration of at least 4000-5000 nmol/mL. The pH of the samples was measured and adjusted to pH 4.0 and the samples were allowed to equilibrate at room temperature until next day if not fully dissolved.
# Preparation of pH 6.5 samples: The pH 6.5 samples of the CNP compounds were prepared by dissolving the freeze dried peptide in water. While stirring, a part of the peptide solution was transferred to a buffer consisting of 41 mM sodium phosphate and 118 mg/mL glycerol, pH 7.5-8.0, followed by addition of diluted sodium hydroxide followed by another part of the peptide solution and further addition of diluted sodium hydroxide. This procedure was repeated until all of the peptide solution had been added where a nominal concentration of at least 4000-5000 nmol/mL had been reached and the buffer composition was 8 mM sodium phosphate, 23 mg/mL glycerol. The pH of the samples were measured and adjusted to pH 6.5 and the samples were allowed to equilibrate at room temperature until next day if not fully dissolved.
# Procedure: Samples at pH 4.0 were prepared as described above and the compound concentration in the supernatant was determined using CAD (Method F, CAD02).
# Samples at pH 6.5 were prepared as described above and peptide concentration in the supernatant was determined by CAD (Method F, CAD02).
Compound,"clearance ([1]; read-out: Cl (L/hr/kg), i.v. administration (converted)) [L/h/kg]","half-life ([1]; read-out: T½ (hr), i.v. administration (converted)) [h]",hNPR2 0% HSA. [EC50% rel CNP] [2] [%],solubility [3] [µM]
CC[C@H](C)[C@@H]1NC(=O)[C@H](CCCNC(=N)N)NC(=O)[C@H](CC(=O)O)NC(=O)[C@H](CC(C)C)NC(=O)[C@@H]2CCCN2C(=O)[C@H](CC(C)C)NC(=O)CNC(=O)[C@H](Cc2ccccc2)NC(=O)[C@@H](NC(=O)CNC(=O)[C@H](CCCCN)NC(=O)[C@H](CO)NC(=O)[C@H](CC(C)C)NC(=O)CNC(=O)[C@H](CCCCN)NC(=O)[C@H](CCCCN)NC(=O)[C@H](CCC(N)=O)NC(=O)[C@H](C)NC(=O)CNC(=O)[C@H](CCC(=O)O)NC(=O)[C@H](Cc2ccc(O)cc2)NC(=O)COCCOCCNC(=O)COCCOCCNC(=O)CC[C@H](NC(=O)CCCCCCCCCCCCCCCCCCC(=O)O)C(=O)O)CSSC[C@@H](C(=O)O)NC(=O)CNC(=O)[C@H](CC(C)C)NC(=O)CNC(=O)[C@H](CO)NC(=O)[C@H](CC(C)C)NC(=O)[C@H](CO)NC(=O)CNC1=O [compound 1376] ({C20 diacid-γGlu-AEEA-AEEA}-YEGAQKKGLSKGCFGLPLDRIGSLSGLGC-OH; disulfide 13-29),0.00418,9.55,,
CC[C@H](C)[C@@H]1NC(=O)[C@H](CCCNC(=N)N)NC(=O)[C@H](CC(=O)O)NC(=O)[C@H](CC(C)C)NC(=O)[C@@H]2CCCN2C(=O)[C@H](CC(C)C)NC(=O)CNC(=O)[C@H](Cc2ccccc2)NC(=O)[C@@H](NC(=O)CNC(=O)[C@H](CO)NC(=O)[C@H](CO)NC(=O)[C@@H](NC(=O)CNC(=O)[C@@H](NC(=O)[C@H](Cc2c[nH]cn2)NC(=O)[C@H](CCC(N)=O)NC(=O)[C@H](C)NC(=O)CNC(=O)[C@H](Cc2c[nH]cn2)NC(=O)[C@H](Cc2ccc(O)cc2)NC(=O)[C@H](CCCCN)NC(=O)[C@H](CCCNC(=N)N)NC(=O)[C@H](C)NC(=O)COCCOCCNC(=O)COCCOCCNC(=O)CC[C@H](NC(=O)CC[C@H](NC(=O)CCCCCCCCCCCCCCCCC(=O)O)C(=O)O)C(=O)O)[C@@H](C)O)C(C)C)CSSC[C@@H](C(=O)O)NC(=O)CNC(=O)[C@H](CC(C)C)NC(=O)CNC(=O)[C@H](CO)NC(=O)[C@H](CC(C)C)NC(=O)[C@H](CO)NC(=O)CNC1=O [compound 1419] ({C18 diacid-γGlu-γGlu-AEEA-AEEA}-ARKYHGAQHTGVSSGCFGLPLDRIGSLSGLGC-OH; disulfide 16-32),,,37.2,318
CC[C@H](C)[C@@H]1NC(=O)[C@H](CCCNC(=N)N)NC(=O)[C@H](CC(=O)O)NC(=O)[C@H](CC(C)C)NC(=O)[C@@H]2CCCN2C(=O)[C@H](CC(C)C)NC(=O)CNC(=O)[C@H](Cc2ccccc2)NC(=O)[C@@H](NC(=O)CNC(=O)[C@H](CO)NC(=O)[C@H](CO)NC(=O)[C@@H](NC(=O)CNC(=O)[C@@H](NC(=O)[C@H](CCCCN)NC(=O)[C@H](CCC(N)=O)NC(=O)[C@H](C)NC(=O)CNC(=O)[C@H](CCCCN)NC(=O)[C@H](Cc2ccc(O)cc2)NC(=O)[C@H](CCCCN)NC(=O)[C@H](CCCNC(=N)N)NC(=O)[C@H](C)NC(=O)COCCOCCNC(=O)COCCOCCNC(=O)CC[C@H](NC(=O)CC[C@H](NC(=O)CC[C@H](NC(=O)CCCCCCCCCCCCCCCCC(=O)O)C(=O)O)C(=O)O)C(=O)O)[C@@H](C)O)C(C)C)CSSC[C@@H](C(=O)O)NC(=O)CNC(=O)[C@H](CC(C)C)NC(=O)CNC(=O)[C@H](CO)NC(=O)[C@H](CC(C)C)NC(=O)[C@H](CO)NC(=O)CNC1=O [compound 1421] ({C18 diacid-γGlu-γGlu-γGlu-AEEA-AEEA}-ARKYKGAQKTGVSSGCFGLPLDRIGSLSGLGC-OH; disulfide 16-32),,,50.0,857

# Source: patent publication US20240209028A1, “CNP COMPOUNDS” (priority 2022, published 2024)
